Assay results from PubChem BioAssay AID330 (DTP/NCI, 2004).
Values joined by “and” are separate entries in the source; they are usually repeats but may differ in a detail not shown here. Equal entries are not always repeated. Toxic doses and inconclusive results are not listed. Rule for the calls: active = survival T/C of 150% or more; inactive = T/C below 125% in these data.

System: P388 leukemia ip, CD2F1 mice, survival T/C
Test: NCI In Vivo Anticancer Drug Screen. Data for tumor model P388 Leukemia (intraperitoneal) in CD2F1 (CDF1) mice
Details: endpoint: median survival time, higher = longer survival
In short: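 Mice carrying the transplanted tumor received test compound or vehicle. Survival was recorded in each group, and the value is the treated-group measurement divided by that of the vehicle-treated control group.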

[1] = dose: 25.0 mg/kg/injection, schedule: Q01DX009 (ip), vehicle: Klucel (hydroxypropylcellulose) (HPC)
[2] = dose: 50.0 mg/kg/injection, schedule: Q01DX009 (ip), vehicle: Klucel (hydroxypropylcellulose) (HPC)
[3] = dose: 100.0 mg/kg/injection, schedule: Q01DX009 (ip), vehicle: saline with Tween-80
[4] = dose: 50.0 mg/kg/injection, schedule: Q01DX005 (ip), vehicle: saline with Tween-80
[5] = dose: 100.0 mg/kg/injection, schedule: Q01DX005 (ip), vehicle: saline with Tween-80
[6] = dose: 200.0 mg/kg/injection, schedule: Q01DX005 (ip), vehicle: saline with Tween-80
[7] = dose: 50.0 mg/kg/injection, schedule: Q01DX009 (ip), vehicle: saline with Tween-80
[8] = dose: 100.0 mg/kg/injection, schedule: Q01DX001 (ip), vehicle: Klucel (hydroxypropylcellulose) (HPC)
[9] = dose: 200.0 mg/kg/injection, schedule: Q01DX009 (ip), vehicle: saline with Tween-80
[10] = dose: 50.0 mg/kg/injection, schedule: Q01DX009 (ip), vehicle: saline
[11] = dose: 100.0 mg/kg/injection, schedule: Q01DX009 (ip), vehicle: saline
[12] = dose: 200.0 mg/kg/injection, schedule: Q01DX009 (ip), vehicle: saline

Measured: T/C

O=c1ccc2ccccc2o1
inactive: dose: 3.12 mg/kg/injection, schedule: Q01DX009 (ip), vehicle: saline with Tween-80 101 % of control and 108 % of control and 94 % of control | dose: 6.25 mg/kg/injection, schedule: Q01DX009 (ip), vehicle: saline with Tween-80 100 % of control and 101 % of control and 110 % of control | dose: 12.5 mg/kg/injection, schedule: Q01DX009 (ip), vehicle: saline with Tween-80 103 % of control and 110 % of control (2×) | [1] 100 % of control and 105 % of control | dose: 25.0 mg/kg/injection, schedule: Q01DX009 (ip), vehicle: saline with Tween-80 100 % of control and 110 % of control and 120 % of control | dose: 25.0 mg/kg/injection, schedule: Q04HX002 (ip), vehicle: water 100 % of control | [2] 105 % of control and 106 % of control and 107 % of control | dose: 50.0 mg/kg/injection, schedule: Q04HX002 (ip), vehicle: water 104 % of control | dose: 100.0 mg/kg/injection, schedule: Q01DX009 (ip), vehicle: Klucel (hydroxypropylcellulose) (HPC) 102 % of control and 105 % of control and 108 % of control | [3] 103 % of control and 114 % of control | dose: 100.0 mg/kg/injection, schedule: Q04HX002 (ip), vehicle: saline with Tween-80 91 % of control | dose: 100.0 mg/kg/injection, schedule: Q04HX002 (ip), vehicle: water 100 % of control | dose: 200.0 mg/kg/injection, schedule: Q01DX009 (ip), vehicle: Klucel (hydroxypropylcellulose) (HPC) 119 % of control and 94 % of control | dose: 200.0 mg/kg/injection, schedule: Q04HX002 (ip), vehicle: saline with Tween-80 59 % of control | dose: 200.0 mg/kg/injection, schedule: Q04HX002 (ip), vehicle: water 101 % of control | dose: 400.0 mg/kg/injection, schedule: Q04HX002 (ip), vehicle: saline with Tween-80 46 % of control

CN(CC(=O)NC(Cc1c[nH]c2ccccc12)C(=O)O)C(=O)OCc1ccccc1 (stereo not drawn)
inactive: [4] 96 % of control | [5] 102 % of control | [6] 98 % of control

CCc1cccc(NC(=O)SCc2ccccc2)c1
inactive: [7] 94 % of control | [3] 98 % of control

CC1(C)OC2C(CO)OC(n3ncc(=S)[nH]c3=O)C2O1 (stereo not drawn)
inactive: dose: 100.0 mg/kg/injection, schedule: Q04DX003 (ip), vehicle: saline with Tween-80 102 % of control | dose: 200.0 mg/kg/injection, schedule: Q04DX003 (ip), vehicle: saline with Tween-80 86 % of control | dose: 400.0 mg/kg/injection, schedule: Q04DX003 (ip), vehicle: saline with Tween-80 97 % of control

CN1C(=O)/C(=C2\SC(=O)N(CN3CCCCC3)C2=O)c2cc(Br)ccc21
inactive: dose: 60.0 mg/kg/injection, schedule: Q01DX005 (ip), vehicle: Klucel (hydroxypropylcellulose) (HPC) 90 % of control | dose: 120.0 mg/kg/injection, schedule: Q01DX005 (ip), vehicle: Klucel (hydroxypropylcellulose) (HPC) 90 % of control | dose: 240.0 mg/kg/injection, schedule: Q01DX005 (ip), vehicle: Klucel (hydroxypropylcellulose) (HPC) 95 % of control

Cc1[nH]c2cc(Br)ccc2c1/C=N/NC(N)=S
inactive: [8] 107 % of control

COCc1ccc(C(N)C(=O)O)cc1 (stereo not drawn)
inactive: dose: 100.0 mg/kg/injection, schedule: Q01DX001 (ip), vehicle: saline with Tween-80 92 % of control | dose: 200.0 mg/kg/injection, schedule: Q01DX001 (ip), vehicle: saline with Tween-80 108 % of control

O=C1COC(c2ccccc2O)=NN1Cc1ccccc1
inactive: [7] 94 % of control | [3] 92 % of control | [9] 99 % of control

O=C(Nc1ccc(Br)cc1)c1ccccc1
inactive: [3] 95 % of control | [9] 90 % of control | dose: 400.0 mg/kg/injection, schedule: Q01DX009 (ip), vehicle: saline with Tween-80 100 % of control

CN(C)[C@@H]1C(=O)C(C(=O)NCNC2(C(=O)O)CCCC2)=C(O)[C@@]2(O)C(=O)C3=C(O)c4c(O)cccc4[C@@](C)(O)[C@H]3C[C@@H]12
inactive: [10] 103 % of control | [11] 95 % of control | dose: 100.0 mg/kg/injection, schedule: Q01DX009 (ip), vehicle: suspension in saline 91 % of control | [12] 106 % of control | dose: 200.0 mg/kg/injection, schedule: Q01DX009 (ip), vehicle: suspension in saline 93 % of control | dose: 400.0 mg/kg/injection, schedule: Q01DX009 (ip), vehicle: saline 98 % of control | dose: 400.0 mg/kg/injection, schedule: Q01DX009 (ip), vehicle: suspension in saline 111 % of control

N=C(N)SCCSC(=N)N
inactive: dose: 25.0 mg/kg/injection, schedule: Q01DX009 (ip), vehicle: saline sonified 90 % of control | dose: 50.0 mg/kg/injection, schedule: Q01DX009 (ip), vehicle: saline sonified 109 % of control | dose: 100.0 mg/kg/injection, schedule: Q04DX002 (ip), vehicle: saline 100 % of control | dose: 200.0 mg/kg/injection, schedule: Q04DX002 (ip), vehicle: saline 100 % of control

COc1ccc2ccc3c(c2c1)C(=O)C(CC(N)=O)C3 (stereo not drawn)
inactive: dose: 12.5 mg/kg/injection, schedule: Q01DX009 (ip), vehicle: distilled water + Tween-80 97 % of control | dose: 25.0 mg/kg/injection, schedule: Q01DX009 (ip), vehicle: distilled water + Tween-80 93 % of control | dose: 50.0 mg/kg/injection, schedule: Q01DX009 (ip), vehicle: distilled water + Tween-80 92 % of control | dose: 200.0 mg/kg/injection, schedule: Q01DX009 (ip), vehicle: distilled water + Tween-80 93 % of control

O=C(CCl)NNc1cccc(Cl)n1
inactive: dose: 50.0 mg/kg/injection, schedule: Q01DX001 (ip), vehicle: Klucel (hydroxypropylcellulose) (HPC) 98 % of control | [8] 98 % of control | dose: 200.0 mg/kg/injection, schedule: Q01DX001 (ip), vehicle: Klucel (hydroxypropylcellulose) (HPC) 93 % of control

C=CCn1c(=O)n(CC=C)c(=O)n(CCOC(=O)COc2ccc(Cl)cc2Cl)c1=O
inactive: [10] 108 % of control | [11] 112 % of control | [12] 94 % of control

Nc1[nH]c(=O)ncc1-c1ccc(Cl)cc1
inactive: dose: 60.0 mg/kg/injection, schedule: Q01DX005 (ip), vehicle: saline with Tween-80 97 % of control | dose: 120.0 mg/kg/injection, schedule: Q01DX005 (ip), vehicle: saline with Tween-80 96 % of control

OCCCOCCCOCCCOCCCOCCCOCCCO
inactive: [4] 100 % of control | [5] 96 % of control | [6] 102 % of control

CCOC(=O)N(C)C(=O)CN(C=O)c1ncc([N+](=O)[O-])s1
inactive: dose: 100.0 mg/kg/injection, schedule: Q01DX001 (ip), vehicle: saline 101 % of control | dose: 200.0 mg/kg/injection, schedule: Q01DX001 (ip), vehicle: saline 101 % of control | dose: 400.0 mg/kg/injection, schedule: Q01DX001 (ip), vehicle: saline 100 % of control

c1ccc2c(NCC3CCNCC3)c3ccccc3nc2c1
inactive: dose: 25.0 mg/kg/injection, schedule: Q04DX002 (ip), vehicle: saline with Tween-80 124 % of control | dose: 50.0 mg/kg/injection, schedule: Q04DX002 (ip), vehicle: saline with Tween-80 112 % of control

Cc1ccc(N2C(=O)CC3(CCCC3)C2=O)cc1C
inactive: dose: 100.0 mg/kg/injection, schedule: Q04DX003 (ip), vehicle: Klucel (hydroxypropylcellulose) (HPC) 100 % of control | dose: 200.0 mg/kg/injection, schedule: Q04DX003 (ip), vehicle: Klucel (hydroxypropylcellulose) (HPC) 98 % of control | dose: 400.0 mg/kg/injection, schedule: Q04DX003 (ip), vehicle: Klucel (hydroxypropylcellulose) (HPC) 98 % of control

NNS(=O)(=O)CCC(NC(=O)OCc1ccccc1)C(=O)OCc1ccccc1 (stereo not drawn)
inactive: dose: 12.5 mg/kg/injection, schedule: Q01DX009 (ip), vehicle: other 98 % of control | dose: 25.0 mg/kg/injection, schedule: Q01DX009 (ip), vehicle: other 103 % of control | dose: 50.0 mg/kg/injection, schedule: Q01DX009 (ip), vehicle: other 94 % of control | dose: 100.0 mg/kg/injection, schedule: Q01DX009 (ip), vehicle: other 94 % of control | dose: 200.0 mg/kg/injection, schedule: Q01DX009 (ip), vehicle: other 98 % of control

Oc1c(C(c2ccccc2)N2CCOCC2)ccc2ccccc12 (stereo not drawn)
inactive: [7] 109 % of control | [3] 109 % of control | [9] 104 % of control

O=C(NNc1ccccc1)c1ccccc1
inactive: dose: 3.13 mg/kg/injection, schedule: Q01DX009 (ip), vehicle: Klucel (hydroxypropylcellulose) (HPC) 100 % of control | dose: 6.25 mg/kg/injection, schedule: Q01DX009 (ip), vehicle: Klucel (hydroxypropylcellulose) (HPC) 98 % of control | dose: 12.5 mg/kg/injection, schedule: Q01DX009 (ip), vehicle: Klucel (hydroxypropylcellulose) (HPC) 100 % of control | [1] 100 % of control | [2] 113 % of control
